Test results published in patent US9580415B2, “Compounds” (Proximagen Limited, priority 2013, dated 2017).

What was measured:
hERG K+ channel = hERG K+ channel (Homo sapiens (Human), UniProt Q12809); assay: hERG assay, IonWorks patch clamp electrophysiology; type: cell-based; conditions: Chinese Hamster Lung cell line stably expressing hERG, IonWorks Quattro, max 11 uM
Procedure: Compounds of the invention were tested for inhibition of the human ether a go-go related gene (hERG) K^+ channel using IonWorks patch clamp electrophysiology. 8 Point concentration-response curves were generated on two occasions using 3-fold serial dilutions from the maximum assay concentration (11 uM). Electrophysiological recordings were made from a Chinese Hamster Lung cell line stably expressing the full length hERG channel. Single cell ion currents were measured in the perforated patch clamp configuration (100 ug/mL amphoterocin) at room temperature using an IonWorks Quattro instrument. The internal solution contained 140 mM KCl, 1 mM MgCl2, 1 mM EGTA and 20 mM HEPES and was buffered to pH 7.3. The external solution contained 138 mM NaCl, 2.7 mM KCl, 0.9 mM CaCl2, 0.5 mM MgCl2, 8 mM Na2HPO4 and 1.5 mM KH2PO4, and was buffered to pH 7.3. Cells were clamped at a holding potential of […] for 30 s and then stepped to +40 mV for 1 s. This was followed by a hyperpolarising step of 1 s to […] to evoke the hERG tail current. This sequence was repeated 5 times at a frequency of 0.25 Hz. Currents were measured from the tail step at the 5th pulse, and referenced to the holding current. […] A minimum of 17 cells were required for each pIC50 curve fit.

human SSAO = human SSAO (Homo sapiens (Human), UniProt Q16853); assay: SSAO enzyme inhibition assay (benzylamine substrate; hydrogen peroxide/HRP or aldehyde detection); type: biochemical; conditions: purified recombinantly expressed human SSAO, RT
human SSAO, sequence (Q16853 whole entry): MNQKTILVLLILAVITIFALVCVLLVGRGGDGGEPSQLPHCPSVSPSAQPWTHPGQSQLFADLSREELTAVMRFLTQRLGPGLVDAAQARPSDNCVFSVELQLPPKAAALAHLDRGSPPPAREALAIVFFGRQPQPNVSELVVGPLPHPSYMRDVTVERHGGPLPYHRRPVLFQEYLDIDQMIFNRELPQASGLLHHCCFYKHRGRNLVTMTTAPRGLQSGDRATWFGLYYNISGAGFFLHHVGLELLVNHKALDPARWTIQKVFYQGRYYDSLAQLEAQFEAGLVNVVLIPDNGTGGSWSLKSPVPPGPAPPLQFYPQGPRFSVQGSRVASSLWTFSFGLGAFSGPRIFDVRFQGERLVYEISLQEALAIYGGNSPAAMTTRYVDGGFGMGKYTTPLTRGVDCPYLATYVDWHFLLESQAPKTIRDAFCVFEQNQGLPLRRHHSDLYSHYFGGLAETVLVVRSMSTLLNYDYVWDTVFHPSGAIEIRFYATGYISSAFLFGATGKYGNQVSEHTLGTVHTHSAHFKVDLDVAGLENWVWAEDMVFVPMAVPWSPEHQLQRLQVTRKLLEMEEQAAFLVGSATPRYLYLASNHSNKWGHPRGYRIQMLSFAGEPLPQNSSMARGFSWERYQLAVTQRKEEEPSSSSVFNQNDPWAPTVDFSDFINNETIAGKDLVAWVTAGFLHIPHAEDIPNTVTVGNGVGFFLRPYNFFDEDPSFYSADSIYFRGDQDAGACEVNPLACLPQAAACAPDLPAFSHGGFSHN
Procedure: All primary assays were performed at RT. with purified recombinantly expressed human SSAO. Enzyme was prepared essentially as described in Öhman et al. (Protein Expression and Purification 46 (2006) 321-331). In addition, secondary- and selectivity assays were performed using SSAO prepared from various tissues or purified rat recombinant SSAO. The enzyme activity was assayed with benzylamine as substrate by measuring either benzaldehyde production, using ^14C-labeled substrate, or by utilizing the production of hydrogen peroxide in a horseradish peroxidase (HRP) coupled reaction. Briefly, test compounds were dissolved in dimethyl sulfoxide (DMSO) to a concentration of 10 mM. Dose-response measurements were assayed by either creating 1:10 serial dilutions in DMSO to produce a 7 point curve or by making 1:3 serial dilutions in DMSO to produce 11 point curves. The top concentrations were adjusted depending on the potency of the compounds and subsequent dilution in reaction buffer yielded a final DMSO concentration ≦2%.
In a horseradish peroxidase (HRP) coupled reaction, hydrogen peroxide oxidation of 10-acetyl-3,7-dihydroxyphenoxazine produced resorufin, which is a highly fluorescent compound (Zhout and Panchuk-Voloshina. Analytical Biochemistry 253 (1997) 169-174; Amplex® Red Hydrogen Peroxide/peroxidase Assay kit, Invitrogen A22188). Enzyme and compounds in 50 mM sodium phosphate, pH 7.4 were set to pre-incubate in flat-bottomed microtiter plates for approximately 15 min before initiating the reaction by addition of a mixture of HRP, benzylamine and Amplex reagent. Benzylamine concentration was fixed at a concentration corresponding to the Michaelis constant, determined using standard procedures. Fluorescence intensity was then measured at several time points during 1-2 h, exciting at 544 nm and reading the emission at 590 nm. For the human SSAO assay final concentrations of the reagents in the assay wells were: SSAO enzyme 1 ug/ml, benzylamine 100 uM, Amplex reagent 20 uM, HRP 0.1 U/mL and varying concentrations of test compound. The inhibition was measured as % decrease of the signal compared to a control without inhibitor (only diluted DMSO). The background signal from a sample containing no SSAO enzyme was subtracted from all data points. Data was fitted to a four parameter logistic model and IC50 values were calculated using the GraphPad Prism 4 or XLfit 4 programs.
SSAO activity was assayed using […] benzylamine and analysed by measuring radioactive benzaldehyde. In a white 96-well optiplate (Packard), 20 uL of diluted test compound was pre-incubated at room temperature with 20 uL SSAO enzyme for approximately 15 min with continuous agitation. All dilutions were made with PBS. The reaction was initiated by adding 20 uL of the benzylamine substrate solution containing Benzylamine hydrochloride (CFA589, GE Healthcare). The plate was incubated for 1 h as above after which the reaction was stopped by acidification (10 uL 1M aq HCl). Then 90 uL Micro Scint-E solution (Perkin-Elmer) was added to each well and the plate was continuously mixed for 15 min. Phase separation occurred instantly and activity was read in a Topcount scintillation counter (Perkin-Elmer). In the final reaction well, the human recombinant SSAO concentration was 10 ug/ml. In order to optimize sensitivity, the substrate concentration was decreased as compared to the HRP coupled assay in order to get a higher fraction of radioactive product. In the human SSAO assay, benzylamine concentration was 40 uM (0.2 uCi/mL). Data was analysed as above.

hERG K+ channel, sequence (Q12809 whole entry): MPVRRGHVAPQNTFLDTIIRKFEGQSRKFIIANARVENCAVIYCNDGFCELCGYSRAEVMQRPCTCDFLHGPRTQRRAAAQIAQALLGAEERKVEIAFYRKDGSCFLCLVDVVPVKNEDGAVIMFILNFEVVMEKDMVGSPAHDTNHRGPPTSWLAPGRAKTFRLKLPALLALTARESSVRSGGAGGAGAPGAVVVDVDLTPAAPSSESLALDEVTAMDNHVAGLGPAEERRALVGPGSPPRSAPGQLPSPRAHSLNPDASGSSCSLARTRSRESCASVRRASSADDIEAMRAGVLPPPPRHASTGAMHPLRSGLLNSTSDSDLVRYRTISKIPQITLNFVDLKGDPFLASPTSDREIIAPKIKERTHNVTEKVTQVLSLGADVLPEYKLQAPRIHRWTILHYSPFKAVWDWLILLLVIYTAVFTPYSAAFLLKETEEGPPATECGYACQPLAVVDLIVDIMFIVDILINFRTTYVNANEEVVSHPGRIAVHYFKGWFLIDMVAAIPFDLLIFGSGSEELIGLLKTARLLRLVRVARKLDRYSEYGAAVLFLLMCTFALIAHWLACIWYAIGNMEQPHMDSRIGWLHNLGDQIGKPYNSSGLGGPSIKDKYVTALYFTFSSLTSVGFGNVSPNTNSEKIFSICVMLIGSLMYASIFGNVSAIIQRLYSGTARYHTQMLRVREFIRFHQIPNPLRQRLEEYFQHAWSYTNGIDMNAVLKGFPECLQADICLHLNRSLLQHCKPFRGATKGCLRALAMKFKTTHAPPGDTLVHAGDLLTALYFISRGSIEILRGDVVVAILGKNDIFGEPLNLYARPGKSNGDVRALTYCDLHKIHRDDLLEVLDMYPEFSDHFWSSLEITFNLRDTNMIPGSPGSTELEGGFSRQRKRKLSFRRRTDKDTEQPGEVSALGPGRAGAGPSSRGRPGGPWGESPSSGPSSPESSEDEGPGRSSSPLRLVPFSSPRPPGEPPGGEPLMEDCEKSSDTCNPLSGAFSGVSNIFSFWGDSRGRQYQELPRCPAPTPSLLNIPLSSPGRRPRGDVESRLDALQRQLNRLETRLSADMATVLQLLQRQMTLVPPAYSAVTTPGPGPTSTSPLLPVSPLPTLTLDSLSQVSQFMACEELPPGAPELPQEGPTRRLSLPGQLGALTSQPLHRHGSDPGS

Row | Compound | IC50 (hERG K+ channel; human, pH 7.3) [µM] | IC50 (human SSAO) [nM] | IC50 (hERG K+ channel) [µM]
1 | NC(=O)N1CCC(c2c(-c3ccc(N)nc3)n(-c3ccc(Cl)cc3)c3cnccc23)CC1 [Example 1, 4-[2-(6-Aminopyridin-3-yl)-1-(4-chlorophenyl)-1H-pyrrolo[2,3-c]pyridin-3-yl]piperidine-1-carboxamide] | 1 to 10 | < 10 | 
2 | NC(=O)N1CCC(c2c(-c3cccnc3)n(-c3ccc(Cl)cc3)c3cnccc23)CC1 [Example 2, 4-[1-(4-Chlorophenyl)-2-(pyridin-3-yl)-1H-pyrrolo[2,3-c]pyridin-3-yl]piperidine-1-carboxamide; formic acid] | 1 to 10 | 10 to 100 | 
3 | COc1ccc(-c2c(C3CCN(C(N)=O)CC3)c3ccncc3n2-c2ccc(Cl)cc2)cn1 [Example 3, 4-[1-(4-Chlorophenyl)-2-(6-methoxypyridin-3-yl)-1H-pyrrolo[2,3-c]pyridin-3-yl]piperidine-1-carboxamide; formic acid] |  | < 10 | 
4 | COc1cc(-c2c(C3CCN(C(N)=O)CC3)c3ccncc3n2-c2ccc(Cl)cc2)ccn1 [Example 4, 4-[1-(4-Chlorophenyl)-2-(2-methoxypyridin-4-yl)-1H-pyrrolo[2,3-c]pyridin-3-yl]piperidine-1-carboxamide; formic acid] |  | < 10 | 0.1 to 1
5 | CN1CCN(c2cc(-c3c(C4CCN(C(N)=O)CC4)c4ccncc4n3-c3ccc(Cl)cc3)ccn2)CC1 [Example 5, 4-[1-(4-Chlorophenyl)-2-[2-(4-methylpiperazin-1-yl)pyridin-4-yl]-1H-pyrrolo[2,3-c]pyridin-3-yl]piperidine-1-carboxamide; bis(formic acid)] |  | < 10 | 
6 | NC(=O)N1CCC(c2c(-c3ccc(N4CCOCC4)nc3)n(-c3ccc(Cl)cc3)c3cnccc23)CC1 [Example 6, 4-[1-(4-Chlorophenyl)-2-[6-(morpholin-4-yl)pyridin-3-yl]-1H-pyrrolo[2,3-c]pyridin-3-yl]piperidine-1-carboxamide] |  | < 10 | 
7 | NC(=O)N1CCC(c2c(-c3cncnc3)n(-c3ccc(Cl)cc3)c3cnccc23)CC1 [Example 7, 4-[1-(4-Chlorophenyl)-2-(pyrimidin-5-yl)-1H-pyrrolo[2,3-c]pyridin-3-yl]piperidine-1-carboxamide] | 1 to 10 | 10 to 100 | 
8 | NC(=O)N1CCC(c2c(-c3cc[nH]n3)n(-c3ccc(Cl)cc3)c3cnccc23)CC1 [Example 8, 4-[1-(4-Chlorophenyl)-2-(1H-pyrazol-3-yl)-1H-pyrrolo[2,3-c]pyridin-3-yl]piperidine-1-carboxamide] | 1 to 10 | 10 to 100 | 
9 | NC(=O)N1CCC(c2c(-c3cn[nH]c3)n(-c3ccc(Cl)cc3)c3cnccc23)CC1 [Example 9, 4-[1-(4-Chlorophenyl)-2-(1H-pyrazo1-4-yl)-1H-pyrrolo[2,3-c]pyridin-3-yl]piperidine-1-carboxamide] |  | < 10 | > 10
10 | Cn1cc(-c2c(C3CCN(C(N)=O)CC3)c3ccncc3n2-c2ccc(Cl)cc2)cn1 [Example 10, 4-[1-(4-Chlorophenyl)-2-(1-methyl-1H-pyrazol-4-yl)-1H-pyrrolo[2,3-c]pyridin-3-yl]piperidine-1-carboxamide; trifluoroacetic acid] |  | < 10 | 
11 | Cn1nccc1-c1c(C2CCN(C(N)=O)CC2)c2ccncc2n1-c1ccc(Cl)cc1 [Example 11, 4-[1-(4-Chlorophenyl)-2-(1-methyl-1H-pyrazol-5-yl)-1H-pyrrolo[2,3-c]pyridin-3-yl]piperidine-1-carboxamide] |  | < 10 | 
12 | Cn1cncc1-c1c(C2CCN(C(N)=O)CC2)c2ccncc2n1-c1ccc(Cl)cc1 [Example 12, 4-[1-(4-Chlorophenyl)-2-(1-methyl-1H-imidazol-5-yl)-1H-pyrrolo[2,3-c]pyridin-3-yl]piperidine-1-carboxamide] |  | < 10 | > 10
13 | NC(=O)N1CCC(c2c(-n3cccn3)n(-c3ccc(Cl)cc3)c3cnccc23)CC1 [Example 13, 4-[1-(4-Chlorophenyl)-2-(1H-pyrazol-1-yl)-1H-pyrrolo[2,3-c]pyridin-3-yl]piperidine-1-carboxamide; formic acid] | 1 to 10 | 10 to 100 | 
14 | NC(=O)N1CCC(c2c(-n3ccnc3)n(-c3ccc(Cl)cc3)c3cnccc23)CC1 [Example 14, 4-[1-(4-Chlorophenyl)-2-(1H-imidazol-1-yl)-1H-pyrrolo[2,3-c]pyridin-3-yl]piperidine-1-carboxamide; bis(formic acid)] |  | 10 to 100 | > 10
15 | NC(=O)N1CCC(c2c(-n3ccnn3)n(-c3ccc(Cl)cc3)c3cnccc23)CC1 [Example 15, 4-[1-(4-Chlorophenyl)-2-(1H-1,2,3-triazol-1-yl)-1H-pyrrolo[2,3-c]pyridin-3-yl]piperidine-1-carboxamide] |  | 100 to 350 | 
16 | NC(=O)N1CCC(c2c(-n3cncn3)n(-c3ccc(Cl)cc3)c3cnccc23)CC1 [Example 16, 4-[1-(4-Chlorophenyl)-2-(1H-1,2,4-triazol-1-yl)-1H-pyrrolo[2,3-c]pyridin-3-yl]piperidine-1-carboxamide] |  | 100 to 350 | 
17 | Clc1ccc(-n2c(-c3ccncc3)c(C3CCNCC3)c3ccncc32)cc1 [Example 17, 4-[1-(4-Chlorophenyl)-3-(piperidin-4-yl)-1H-pyrrolo[2,3-c]pyridin-2-yl]pyridine] | 1 to 10 | < 10 | 
18 | Nc1ccc(-c2c(C3CCNCC3)c3ccncc3n2-c2ccc(Cl)cc2)cn1 [Example 18, 5-[1-(4-Chlorophenyl)-3-(piperidin-4-yl)-1H-pyrrolo[2,3-c]pyridin-2-yl]pyridin-2-amine] |  | 10 to 100 | > 10
19 | CN(C)Cc1c(-c2ccncc2)n(-c2ccc(Cl)cc2)c2cnccc12 [Example 19, {[1-(4-Chlorophenyl)-2-(pyridin-4-yl)-1H-pyrrolo[2,3-c]pyridin-3-yl]methyl}dimethyl amine] | 1 to 10 | 10 to 100 | 
20 | CN(C)Cc1c(-c2cccnc2)n(-c2ccc(Cl)cc2)c2cnccc12 [Example 20, {[1-(4-Chlorophenyl)-2-(pyridin-3-yl)-1H-pyrrolo[2,3-c]pyridin-3-yl]methyl}dimethyl amine] |  | 100 to 350 | 
21 | Clc1ccc(-n2c(-c3nn[nH]n3)c(C3CCNCC3)c3ccncc32)cc1 [Example 21, 4-[1-(4-Chlorophenyl)-2-(2H-1,2,3,4-tetrazol-5-yl)-1H-pyrrolo[2,3-c]pyridin-3-yl]piperidine; bis(trifluoroacetic acid)] |  | 100 to 350 | > 10
